Data taken from US8440423B2, “Bioremediation of nanomaterials” (U.S. Department of Energy, priority 2007, dated 2013).

Experiments:
Escherichia coli W3110 = assay: Growth of E. coli W3110 in minimal [3-13C]L-lactate medium with nanoparticles added (OD600); assay type: cell-based
Procedure: (§1) Tracer Experiments. Shewanella oneidensis MR-1 and Escherichia coli W3110 were cultured in minimal medium (described in Tang, Y. J. J.; Laidlaw, D.; Gani, K.; Keasling, J. D. Biotechnology and Bioengineering 2006, 95, (1), 176-184) and hereby incorporated by reference). The medium was supplied with 30 mM (98% [3-^13C]L-lactate) (Cambridge Isotope, USA) as the sole carbon source to support cell growth. The inoculum was prepared in LB medium, which was grown overnight. This culture was inoculated into the minimal medium with a 0.09% inoculation volume. Both S. oneidensis and E. coli were cultured in shake flasks at 30° C. (at 200 rpm in dark). The fullerene compounds (C60, C60—OH, C60—COOH and C60-NH2) were added to the medium to different final concentrations (from 1 mg/L to 80 mg/L) before the exponential phase (OD600=0.09˜0.10). The culture's optical density at a wavelength of 600 nm (OD600) was measured in a spectrophotometer (DU®640, Beckman Instruments, Palo Alto, Calif.) every 2-3 hours. The carbon source (lactate) concentrations at each time point were determined using an enzyme test kit (r-Biopharm Inc., Darmstadt, Germany).
We used minimal medium containing [3-^13C]L-lactate to grow both organisms and test the impact of fullerenes (concentrations range from 0˜80 mg/l) on their growth. […]

[1] = system: Shewanella oneidensis MR-1; assay: Growth of S. oneidensis MR-1 in minimal [3-13C]L-lactate medium with nanoparticles added (OD600); assay type: cell-based
Procedure: as §1
We used minimal medium containing [3-^13C]L-lactate to grow both organisms and test the impact of fullerenes (concentrations range from 0˜80 mg/l) on their growth. Since C60 is not soluble in water and cannot be uniformly suspended in the culture solution, we only applied concentrations less than 20 mg/L in the studies of non-derivatized C60.

Solubility in water = assay type: physicochemical
mouse skin = conditions: repeating subchronic topical dose on mouse skin for up to 24 weeks; cited from earlier work
[2] = system: 22 collection strains including E coli, B. subtilis, etc.; conditions: ~43 mg/L; cited from earlier work
E. coli, and B. subtilis = conditions: up to 5 mg/L; cited from earlier work

## c12c3c4c5c1c1c6c7c2c2c8c3c3c9c4c4c%10c5c5c1c1c6c6c%11c7c2c2c7c8c3c3c8c9c4c4c9c%10c5c5c1c1c6c6c%11c2c2c7c3c3c8c4c4c9c5c1c1c6c2c3c41 [C60, C60 fullerene]
Escherichia coli W3110; 20 mg/L and 40 mg/L, FIG. 4a
  E. coli growth course after addition of nanoparticles: slowed after addition of nanoparticles, then resumed their normal growth rate
Escherichia coli W3110; concentrations up to 80 mg/L (C60 less than 20 mg/L), FIG. 3a
  E. coli growth inhibition: did not significantly inhibit
[1]
  effect on S. oneidensis MR-1 (growth), summary statement: mild negative effects
[1]; 20 mg/L and 40 mg/L, FIG. 4b
  S. oneidensis growth course after addition of nanoparticles: slowed after addition of nanoparticles, then resumed their normal growth rate
[1]; concentrations up to 80 mg/L (C60 less than 20 mg/L), FIG. 3b
  S. oneidensis growth inhibition: did not significantly inhibit
Solubility in water
  solubility in water: not soluble
Mouse skin
  carcinogenicity: non-carcinogenic
[2]
  Conclusions: effect on 22 collection strains: No effect
E. coli, and B. subtilis
  Conclusions: effect on growth of prokaryotic microorganisms: inhibitory to
